A short description of assay [1]: Conditioned place preference (CPP) test. It is filed as in vivo, male Lewis rats. The following applies: for conditioned place preference, cocaine alone: cocaine 15 mg/kg s.c. plus placebo. The text has this:
Testing associated with conditioning place preference (CPP) procedures involves some rather straightforward assumptions and observations.
To test NTI's ability to block cocaine's ability to establish a CPP, male, Lewis rats were subjected to standard procedures associated with testing for place preferences. The rats were first habituated to being handled.
Then, the rats were put into an alley having two distinctive sides with the barrier separating the two sides not in place, i.e., a baseline preference for the two sides was measured. After baseline was determined, the conditioning procedures began.
The conditioning procedures were the same for all rats, except that there were four different regimens of drug administration, one regimen for each of four different groups of rats (12 rats a group). The conditioning procedure involved one set of kind of injections before a rat was placed in one side of the alley and another set of kind of injections before being placed in the other side.
The group of rats that received the procedures usually used to show a cocaine-produced CPP, received cocaine-injections (plus a placebo injection) before being put into the putative side of conditioning. The dose of cocaine was 15 mg/kg given subcutaneously, a relatively large dose of cocaine. On the next day, this group received placebo injections before being put into the alternative side. These procedures were repeated throughout conditioning.
There was also a group that received placebos (vehicles for both cocaine and NTI) before being placed in either side of the chamber. This is a typical control group and can be used to determine if merely the procedures themselves of handling the rats leads rats to change their preference for a side of the alley.
There was yet another control group. This group received NTI before being placed in the side of putative conditioning and placebos at other times. […] So, the basic conditions for testing a NTI's effects on cocaine's ability to establish a CPP indicative of cocaine's positivity were set.
FIG. 2 depicts the mean percent change from baseline for each of the experimental groups. The group represented by the open bar (far left bar) received only injections of placebos before being put into either side of the apparatus, i.e., this is a placebo control group. […] The striped bar depicts the mean scores of the group that received NTI before being placed into the side of conditioning and saline before being placed into the other side. […] The solid black bar depicts the scores of the group getting cocaine before being put into the side of conditioning (saline or placebo before being put into the other side). […] The cross-hatched bar depicts the mean score of the group treated with cocaine but also receiving NTI.

Assay [2] deals with dopamine transporter. The following applies: in words; cited from earlier work.
Assay [3] is classed as in vivo, rats. The following applies: cocaine 0.4 mg/kg a lever press; one-hour session. The text has this:
When rats are fixed with chronically indwelling intravenous catheters, drugs can be administered as the rats are walking around. These same rats can be put into a box equipped with a lever, the depression of which actuates a pump that can deliver drug through the catheter, i.e., the rats can be put into a Skinner box with drug administration a continguency of lever-pressing. […] See J. R. Weeks et al., "Screening for Drug Reinforcement Using Intravenous Self-Administration in the Rat," Bozarth, cited above, at pages 35-44.
Rats were fixed with chronically indwelling catheters for the delivery of doses of cocaine directly into their veins. Subsequently, the rats were trained to press a lever for small bolus injections of cocaine (0.4 mg/kg of cocaine a lever press with an injection volume of 10 microliters of drug plus saline solution, the drug carrier). Rats were given one-hour opportunities daily to press for cocaine.

Assay [4] is classed as in vivo, rats. The following applies: for pressing for brain stimulation, cocaine alone: cocaine (5.0 mg/kg in Example 5); for pressing for brain stimulation, NTI plus MDMA: in words. The text has this: When rats are fixed with chronically indwelling bipolar electrodes for electrical stimulation of the medial forebrain bundle, they will press levers for brief durations of stimulation. The higher the intensity of stimulation, the greater the pressing. […] These relationships plus extant theory provide the rationale for using pressing for brain stimulation as a means of assessing the reinforcing effects of drugs and assessing which drugs might affect another drug's reinforcing effects.
The particulars of the procedures used herein are briefly summarized. Further information is in Reid (cited above) and Reid et al. (Life Sciences, 52, PL67-71 (1993)). Rats were fixed with chronically indwelling bipolar electrodes. Using standard stereotaxic methods, which includes full anesthesia, the tips of the electrode were aimed to stimulate the medial forebrain bundle as it traverses the lateral hypothalamus. With the skull held in a stereotaxic instrument so that a plane between bregma and lamba was perpendicular to the shaft of the electrode, the following stereotaxic coordinates were used: 3.5 mm posterior to brema, 1.6 mm lateral to the midline, and 8.6 mm below the surface of the skull.
The apparatus of these tests was a Skinner box (24×30 ×38 cm) equipped with a lever (2.5×2 cm). Each box was fixed with electrical leads and a slip-ring apparatus that allowed the rat to be connected to the electrical stimulator for intracranial stimulation, but allowed the rat to move freely in the box.
Upon full recovery from surgery, rats were trained to press a lever in the Skinner box for electrial stimulation of the brain. The electrical stimulation was 60 Hz sine waves of 0.3 sec. The maximum intensity used was of 50 microAmps. Each lever press delivered one 0.3-sec of brain stimulation.
Just after rats learned to press the lever, the intensity of the brain stimulation was varied. Three intensities were chosen. The lowest intensity was one that was barely sufficient to sustain lever pressing. The highest intensity sustained high rates of pressing, but not the highest rates that a rat can achieve. The medium intensity was about midway between the lowest and the highest. Once a set of intensities were established for each rat, those intensities remained fixed throughout the balance of testing. […] Each rat was under a daily regimen. They were allowed to press for each of three intensities of brain stimulation for 10 minutes. […] They were allowed to press the lever under this daily regimen under level-pressing rates became stable. Then, drugs (or placebos) were administered.
The methods of Example 5 were nearly the same as those of Example 4. Rats were fixed, using standard procedures, with chronically indwelling electrodes for stimulation of the medial forebrain bundle. Subsequent to recovery from surgery, they were trained to press for brain stimulation. After each learned to press, they were put on a daily regimen. That daily regimen involved pressing for 5 min at a high intensity of brain stimulation, followed by 5-minute sessions with medium, low, low, medium and then high intensity. Intensities were set for each rat so that pressing rate for the low intensity was rather slow (the low intensity being near lower threshold for maintaining pressing), pressing for the high intensity was at a high rate, and pressing for the medium intensity was between the rate for low and high intensity. Pressing at each intensity was averaged for an index of rat's responsiveness at that intensity.

For assay [5] the following is noted: drug alone; literature; cited from earlier work.
Assay [6] has as its target mu opioid receptor. The following applies: agonist morphine in GPI; antagonist 100 or 200 nM, 15 min; read-out: Ke; cited from earlier work.
Assay [7] concerns delta opioid receptor. Briefly: In vivo antagonism of DSLET antinociception (writhing). The arrangement: species or system mice. The following applies: 20 mg/kg s.c.; in words. Here is the method:
When mice are injected with an irritant, they respond by a characteristic writhing that can be inhibited by analgesics. Consequently, the writhing response can be used to index the effects of particular opioids.
(Writhing tests count abdominal constrictions after an irritant is injected.)

Entries after “also recorded” stand apart in the source; their conditions may differ. Where two headings read alike, the source gives them in different places.

The values that follow come from patent US5411965A, “Use of delta opioid receptor antagonists to treat cocaine abuse” (Arizona Board of Regents, priority 1993, dated 1995).

Consider `COC(=O)[C@H]1[C@@H](OC(=O)c2ccccc2)C[C@@H]2CC[C@H]1N2C` [Cocaine, methyl 3-(benzoyloxy)-8-methyl-8-azabicyclo[3.2.1]octane-2-carboxylate], for which the “conditioned place preference, cocaine alone” value is “established a positive CPP; also recorded: produced a significant (asterisk) positive place preference” in assay [1]; “statistically significantly different than its baseline score and is significantly larger than the placebo-control group's scores” in assay [1] (listed as cocaine). For the same molecule, the “dopamine transporter binding / dopamine reuptake inhibition” value in assay [2] was “binds to the dopamine transporter and inhibits dopamine reuptake”. Besides, in assay [3], the “cocaine self-administration, average presses without NTI” value was “about 11 presses a session”. The “pressing for brain stimulation, cocaine alone” value is “leads to a marked increase in pressing compared to pressing under the influence of placebo” in assay [4] and “large increase in pressing; also recorded: increased pressing for stimulation” in assay [4] (listed as cocaine). For the same molecule, in assay [5], the conditioned place preference entry is on record as “establishes a CPP”.
As for `Oc1ccc2c3c1O[C@H]1c4[nH]c5ccccc5c4C[C@@]4(O)[C@@H](C2)N(CC2CC2)CC[C@]314` [Compound 1, 17-(cyclopropylmethyl)-6,7-dehydro-3,14β-dihydroxy-4,5α-epoxy-6,7-2',3'-indolmorphinan], in assay [1] (rat, in vivo), the “conditioned place preference, NTI alone” value was “did not significantly change from baseline to testing; also recorded: not statistically different at testing from baseline; also recorded: did not by itself establish a place preference; also recorded: did not produce place preferences or place aversions” and the “conditioned place preference, NTI plus cocaine” value is listed as “significantly different from the cocaine group's scores but not different from the other groups' scores; also recorded: blocked cocaine's ability to produce a positive CPP; also recorded: antagonized by naltrindole”. Further, the Kb in assay [6] was 29.4 nM. For the same molecule, the “blocking of writhing inhibition due to DSLET” value in assay [7] is given as “effectively blocked the writhing inhibition due to DSLET”. Moreover, in assay [4] (High intensity, combination with MDMA, six rats), the “mean presses at High intensity, MDMA plus Naltrindole” value turned out to be 825 presses per ten minutes. For the same molecule, the “mean presses at Low intensity, MDMA plus Naltrindole” value in assay [4] (Low intensity, combination with MDMA, six rats) worked out at 98 presses per ten minutes. Besides, the “mean presses at Medium intensity, MDMA plus Naltrindole” value in assay [4] (Medium intensity, combination with MDMA, six rats) came to 342 presses per ten minutes. Further, the “pressing for brain stimulation, NTI alone” value in assay [4] (NTI by itself, listed as NTI) was “no demonstratable effect; also recorded: did not, by itself, reduce pressing for brain stimulation”. Besides, the “pressing for brain stimulation, NTI plus MDMA” value in assay [4] (listed as NTI) is reported as “reduced the increased pressing associated with the administration of MDMA”. For the same molecule, the “pressing for brain stimulation, NTI plus MDMA” value in assay [4] (listed as naltrindole) is “pressing at the low intensity is reduced considerably and there is no reliable difference in pressing under the combination of drugs compared to placebo”. For the same molecule, in assay [4] (rat, in vivo), the “pressing for brain stimulation, NTI plus amphetamine” value was “pressed somewhat less under the influence of NTI (10 mg/kg) plus amphetamine than they did under the influence of placebos; also recorded: NTI can modulate amphetamine's as well as cocaine's reinforcing effects; also recorded: reduced pressing similar to rate under placebo”; the “pressing for brain stimulation, NTI plus cocaine” value is “NTI blocked cocaine's effects; also recorded: blocked the effects of cocaine; also recorded: NTI blocked cocaine's ability to be reinforcing; also recorded: reduced rate of pressing under the influence of cocaine to that similar to rate of pressing under placebo alone; also recorded: extraordinarily effective in blocking cocaine's salient effects”; the “pressing for brain stimulation, NTI plus morphine” value is “hardly affected the effects of morphine; also recorded: negligible; also recorded: did not markedly or significantly affect rate of pressing”.
